What was measured:
Details in all cases: Compound concentration 1000.0 nM
[1] = target: AP2-associated protein kinase 1 (Homo sapiens) (UniProt Q2M2I8)
[2] = tested on: Tyrosine-protein kinase ABL1 (Homo sapiens), P00519 [T315I]
[3] = target: Cyclin-dependent kinase 7 (Homo sapiens) (UniProt P50613)
[4] = target: Cyclin-dependent kinase-like 1 (Homo sapiens) (UniProt Q00532)
[5] = target: Macrophage colony-stimulating factor 1 receptor (Homo sapiens) (UniProt P07333)
[6] = target: Serine/threonine-protein kinase DCLK2 (Homo sapiens) (UniProt Q8N568)
[7] = target: Ephrin type-A receptor 5 (Homo sapiens) (UniProt P54756)
[8] = target: Receptor tyrosine-protein kinase erbB-2 (Homo sapiens) (UniProt P04626)
[9] = target: T1, Rhodopsin kinase GRK7 (Homo sapiens) (UniProt Q8WTQ7)
T1 sequence (whole entry): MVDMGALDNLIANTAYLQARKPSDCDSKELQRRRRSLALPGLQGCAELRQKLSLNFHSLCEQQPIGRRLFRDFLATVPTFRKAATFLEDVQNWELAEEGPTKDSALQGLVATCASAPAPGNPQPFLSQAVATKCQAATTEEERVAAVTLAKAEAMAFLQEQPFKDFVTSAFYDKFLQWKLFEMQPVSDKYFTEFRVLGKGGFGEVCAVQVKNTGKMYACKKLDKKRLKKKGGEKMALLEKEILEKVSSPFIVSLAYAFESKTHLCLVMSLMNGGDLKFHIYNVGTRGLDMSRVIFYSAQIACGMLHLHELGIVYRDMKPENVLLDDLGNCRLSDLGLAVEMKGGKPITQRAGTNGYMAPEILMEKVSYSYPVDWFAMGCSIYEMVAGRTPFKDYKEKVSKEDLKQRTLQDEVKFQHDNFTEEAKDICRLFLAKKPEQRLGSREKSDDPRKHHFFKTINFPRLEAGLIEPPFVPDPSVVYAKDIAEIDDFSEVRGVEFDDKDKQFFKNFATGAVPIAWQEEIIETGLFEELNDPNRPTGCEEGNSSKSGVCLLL

[10] = tested on: Mast/stem cell growth factor receptor Kit (Homo sapiens), P10721 [V559D,V654A]
[11] = target: Cyclin-dependent kinase 2 homolog (Plasmodium falciparum (isolate 3D7)) (UniProt P61075)
[12] = target: Transient receptor potential cation channel subfamily M member 6 (Homo sapiens) (UniProt Q9BX84)
[13] = target: T2, Testis-specific serine/threonine-protein kinase 1 (Homo sapiens) (UniProt Q9BXA7)
T2 sequence (whole entry): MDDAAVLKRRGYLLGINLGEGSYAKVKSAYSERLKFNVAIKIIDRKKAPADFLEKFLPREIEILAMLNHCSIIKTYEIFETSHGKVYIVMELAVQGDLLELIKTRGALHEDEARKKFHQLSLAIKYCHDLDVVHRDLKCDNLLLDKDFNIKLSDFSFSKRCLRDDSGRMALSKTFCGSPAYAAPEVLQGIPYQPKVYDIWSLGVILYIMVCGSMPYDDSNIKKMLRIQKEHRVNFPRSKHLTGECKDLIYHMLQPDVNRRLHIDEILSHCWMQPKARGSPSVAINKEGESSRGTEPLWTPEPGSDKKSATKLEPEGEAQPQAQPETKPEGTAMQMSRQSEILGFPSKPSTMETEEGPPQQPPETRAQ

[14] = target: T3, Serine/threonine-protein kinase ULK2 (Homo sapiens) (UniProt Q8IYT8)
T3 sequence (whole entry): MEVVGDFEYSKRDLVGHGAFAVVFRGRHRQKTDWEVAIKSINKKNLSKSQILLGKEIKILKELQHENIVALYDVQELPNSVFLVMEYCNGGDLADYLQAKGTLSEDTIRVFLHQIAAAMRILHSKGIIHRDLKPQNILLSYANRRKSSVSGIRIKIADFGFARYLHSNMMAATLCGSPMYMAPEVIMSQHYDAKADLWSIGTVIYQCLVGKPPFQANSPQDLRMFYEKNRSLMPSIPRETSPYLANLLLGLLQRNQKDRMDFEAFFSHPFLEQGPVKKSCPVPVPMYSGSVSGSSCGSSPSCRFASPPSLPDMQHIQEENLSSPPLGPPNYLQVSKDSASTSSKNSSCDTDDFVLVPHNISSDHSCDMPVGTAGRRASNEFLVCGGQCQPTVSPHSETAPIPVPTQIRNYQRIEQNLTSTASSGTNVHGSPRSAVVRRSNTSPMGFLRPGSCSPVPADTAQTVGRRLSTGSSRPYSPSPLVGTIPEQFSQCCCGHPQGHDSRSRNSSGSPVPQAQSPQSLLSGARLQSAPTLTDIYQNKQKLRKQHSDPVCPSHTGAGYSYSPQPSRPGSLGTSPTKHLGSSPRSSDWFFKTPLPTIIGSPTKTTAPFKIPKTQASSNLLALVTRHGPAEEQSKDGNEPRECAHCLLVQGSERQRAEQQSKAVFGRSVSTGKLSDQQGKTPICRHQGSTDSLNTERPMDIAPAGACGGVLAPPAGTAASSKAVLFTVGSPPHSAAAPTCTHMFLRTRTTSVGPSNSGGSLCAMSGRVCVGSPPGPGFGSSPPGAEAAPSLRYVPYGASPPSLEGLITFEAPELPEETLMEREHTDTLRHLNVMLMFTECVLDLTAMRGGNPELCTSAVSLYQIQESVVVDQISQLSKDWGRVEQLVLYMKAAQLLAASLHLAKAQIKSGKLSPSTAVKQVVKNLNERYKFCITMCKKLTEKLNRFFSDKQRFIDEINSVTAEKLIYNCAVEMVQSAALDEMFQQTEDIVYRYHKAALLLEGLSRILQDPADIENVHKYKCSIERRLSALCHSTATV

[15] = target: Serine/threonine-protein kinase 32B (Homo sapiens) (UniProt Q9NY57)
[16] = target: Tyrosine-protein kinase Yes (Homo sapiens) (UniProt P07947)

Measured: residual activity

Chain of Macrophage colony-stimulating factor 1 receptor (Homo sapiens) (P07333 whole entry): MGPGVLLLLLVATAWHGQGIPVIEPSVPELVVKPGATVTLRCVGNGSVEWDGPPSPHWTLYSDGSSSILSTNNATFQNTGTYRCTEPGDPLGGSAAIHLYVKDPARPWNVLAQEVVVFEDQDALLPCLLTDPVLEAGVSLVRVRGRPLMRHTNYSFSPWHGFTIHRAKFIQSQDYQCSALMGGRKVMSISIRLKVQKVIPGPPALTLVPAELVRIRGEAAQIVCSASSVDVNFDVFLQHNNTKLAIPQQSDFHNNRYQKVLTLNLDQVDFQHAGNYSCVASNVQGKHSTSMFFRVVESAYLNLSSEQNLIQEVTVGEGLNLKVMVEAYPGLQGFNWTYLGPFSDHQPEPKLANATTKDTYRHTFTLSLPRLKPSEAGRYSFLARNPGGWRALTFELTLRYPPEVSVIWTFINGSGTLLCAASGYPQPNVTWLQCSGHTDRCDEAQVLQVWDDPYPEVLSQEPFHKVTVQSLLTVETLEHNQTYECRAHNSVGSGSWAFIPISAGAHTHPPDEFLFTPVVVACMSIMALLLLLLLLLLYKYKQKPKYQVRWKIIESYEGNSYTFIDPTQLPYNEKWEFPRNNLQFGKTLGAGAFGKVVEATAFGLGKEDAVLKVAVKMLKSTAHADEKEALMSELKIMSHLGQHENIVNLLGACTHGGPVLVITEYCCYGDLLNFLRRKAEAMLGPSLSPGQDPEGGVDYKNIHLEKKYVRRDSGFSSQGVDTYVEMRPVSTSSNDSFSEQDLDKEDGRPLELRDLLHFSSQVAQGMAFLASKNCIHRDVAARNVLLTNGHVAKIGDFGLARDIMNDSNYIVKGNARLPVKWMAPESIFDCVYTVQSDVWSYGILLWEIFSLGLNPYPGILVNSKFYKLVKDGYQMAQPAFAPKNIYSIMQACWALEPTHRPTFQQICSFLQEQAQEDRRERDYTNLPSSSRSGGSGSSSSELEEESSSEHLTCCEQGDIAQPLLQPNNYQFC
Chain of Tyrosine-protein kinase Yes (Homo sapiens) (P07947 2-543 limits assumed): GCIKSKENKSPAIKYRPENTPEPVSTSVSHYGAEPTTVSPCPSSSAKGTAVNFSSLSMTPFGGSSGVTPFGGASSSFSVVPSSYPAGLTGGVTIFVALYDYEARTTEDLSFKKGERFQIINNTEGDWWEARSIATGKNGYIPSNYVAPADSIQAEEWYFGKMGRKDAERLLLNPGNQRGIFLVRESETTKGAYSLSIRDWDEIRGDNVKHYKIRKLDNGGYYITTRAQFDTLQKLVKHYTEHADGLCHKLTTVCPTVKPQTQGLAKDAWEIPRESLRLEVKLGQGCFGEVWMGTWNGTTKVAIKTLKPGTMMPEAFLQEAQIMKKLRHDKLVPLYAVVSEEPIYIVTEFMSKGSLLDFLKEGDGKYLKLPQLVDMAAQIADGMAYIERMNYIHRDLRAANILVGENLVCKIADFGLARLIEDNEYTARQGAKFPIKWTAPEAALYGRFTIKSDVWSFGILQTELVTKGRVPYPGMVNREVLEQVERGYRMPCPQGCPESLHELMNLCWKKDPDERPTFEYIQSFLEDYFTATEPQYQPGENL
Chain of AP2-associated protein kinase 1 (Homo sapiens) (Q2M2I8 whole entry, looked up): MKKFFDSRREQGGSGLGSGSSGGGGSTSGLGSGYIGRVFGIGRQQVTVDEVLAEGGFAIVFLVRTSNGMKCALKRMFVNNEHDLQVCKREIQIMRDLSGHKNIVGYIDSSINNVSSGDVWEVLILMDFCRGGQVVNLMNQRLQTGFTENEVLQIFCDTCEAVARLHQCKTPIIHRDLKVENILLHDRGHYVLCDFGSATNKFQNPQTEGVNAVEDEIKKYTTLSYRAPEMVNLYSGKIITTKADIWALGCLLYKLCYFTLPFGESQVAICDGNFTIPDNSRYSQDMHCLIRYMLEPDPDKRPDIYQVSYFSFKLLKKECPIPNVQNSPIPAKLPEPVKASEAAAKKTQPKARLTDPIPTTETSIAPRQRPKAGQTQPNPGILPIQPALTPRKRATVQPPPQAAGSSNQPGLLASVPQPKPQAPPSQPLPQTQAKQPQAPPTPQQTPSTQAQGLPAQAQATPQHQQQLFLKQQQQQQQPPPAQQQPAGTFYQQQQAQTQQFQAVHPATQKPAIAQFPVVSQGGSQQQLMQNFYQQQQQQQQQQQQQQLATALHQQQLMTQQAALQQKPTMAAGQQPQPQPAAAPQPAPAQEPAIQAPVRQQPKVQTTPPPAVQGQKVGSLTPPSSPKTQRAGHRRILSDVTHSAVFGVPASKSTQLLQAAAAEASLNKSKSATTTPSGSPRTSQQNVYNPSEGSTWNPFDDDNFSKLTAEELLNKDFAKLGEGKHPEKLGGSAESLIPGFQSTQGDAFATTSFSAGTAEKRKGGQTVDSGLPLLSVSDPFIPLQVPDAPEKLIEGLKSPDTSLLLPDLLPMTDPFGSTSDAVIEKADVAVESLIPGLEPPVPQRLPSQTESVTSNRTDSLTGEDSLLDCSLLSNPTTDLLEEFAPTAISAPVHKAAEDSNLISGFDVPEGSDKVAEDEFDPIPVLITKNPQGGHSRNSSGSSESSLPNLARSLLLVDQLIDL
Chain of Serine/threonine-protein kinase 32B (Homo sapiens) (Q9NY57 whole entry): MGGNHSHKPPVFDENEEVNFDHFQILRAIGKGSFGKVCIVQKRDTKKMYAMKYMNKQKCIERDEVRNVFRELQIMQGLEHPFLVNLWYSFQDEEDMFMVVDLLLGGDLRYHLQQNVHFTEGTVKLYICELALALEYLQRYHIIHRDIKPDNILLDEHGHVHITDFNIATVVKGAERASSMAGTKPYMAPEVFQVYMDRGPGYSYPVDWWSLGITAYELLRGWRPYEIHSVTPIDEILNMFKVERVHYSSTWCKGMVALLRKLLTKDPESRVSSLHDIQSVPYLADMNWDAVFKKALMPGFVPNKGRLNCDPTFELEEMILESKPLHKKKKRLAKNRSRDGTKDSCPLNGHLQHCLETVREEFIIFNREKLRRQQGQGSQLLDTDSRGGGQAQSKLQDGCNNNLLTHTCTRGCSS
Chain of Serine/threonine-protein kinase DCLK2 (Homo sapiens) (Q8N568 whole entry): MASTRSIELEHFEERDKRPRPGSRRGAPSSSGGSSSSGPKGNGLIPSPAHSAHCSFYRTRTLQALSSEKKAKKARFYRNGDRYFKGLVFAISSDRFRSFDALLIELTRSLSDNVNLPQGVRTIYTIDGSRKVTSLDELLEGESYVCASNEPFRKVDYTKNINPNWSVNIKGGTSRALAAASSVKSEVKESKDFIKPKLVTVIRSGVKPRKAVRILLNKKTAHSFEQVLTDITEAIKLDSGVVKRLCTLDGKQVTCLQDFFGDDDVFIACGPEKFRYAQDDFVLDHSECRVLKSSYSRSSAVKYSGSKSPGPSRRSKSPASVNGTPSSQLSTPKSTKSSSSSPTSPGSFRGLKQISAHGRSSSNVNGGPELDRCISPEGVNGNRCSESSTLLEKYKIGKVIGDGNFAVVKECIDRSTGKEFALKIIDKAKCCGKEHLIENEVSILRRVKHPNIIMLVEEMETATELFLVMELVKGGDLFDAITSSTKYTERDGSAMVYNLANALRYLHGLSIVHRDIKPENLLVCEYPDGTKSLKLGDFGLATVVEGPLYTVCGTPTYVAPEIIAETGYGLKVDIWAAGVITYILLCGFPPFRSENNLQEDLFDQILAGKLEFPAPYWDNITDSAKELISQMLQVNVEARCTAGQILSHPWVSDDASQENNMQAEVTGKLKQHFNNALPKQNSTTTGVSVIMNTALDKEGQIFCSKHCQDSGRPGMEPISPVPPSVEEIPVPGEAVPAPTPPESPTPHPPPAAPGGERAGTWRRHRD
Chain of Receptor tyrosine-protein kinase erbB-2 (Homo sapiens) (P04626 whole entry): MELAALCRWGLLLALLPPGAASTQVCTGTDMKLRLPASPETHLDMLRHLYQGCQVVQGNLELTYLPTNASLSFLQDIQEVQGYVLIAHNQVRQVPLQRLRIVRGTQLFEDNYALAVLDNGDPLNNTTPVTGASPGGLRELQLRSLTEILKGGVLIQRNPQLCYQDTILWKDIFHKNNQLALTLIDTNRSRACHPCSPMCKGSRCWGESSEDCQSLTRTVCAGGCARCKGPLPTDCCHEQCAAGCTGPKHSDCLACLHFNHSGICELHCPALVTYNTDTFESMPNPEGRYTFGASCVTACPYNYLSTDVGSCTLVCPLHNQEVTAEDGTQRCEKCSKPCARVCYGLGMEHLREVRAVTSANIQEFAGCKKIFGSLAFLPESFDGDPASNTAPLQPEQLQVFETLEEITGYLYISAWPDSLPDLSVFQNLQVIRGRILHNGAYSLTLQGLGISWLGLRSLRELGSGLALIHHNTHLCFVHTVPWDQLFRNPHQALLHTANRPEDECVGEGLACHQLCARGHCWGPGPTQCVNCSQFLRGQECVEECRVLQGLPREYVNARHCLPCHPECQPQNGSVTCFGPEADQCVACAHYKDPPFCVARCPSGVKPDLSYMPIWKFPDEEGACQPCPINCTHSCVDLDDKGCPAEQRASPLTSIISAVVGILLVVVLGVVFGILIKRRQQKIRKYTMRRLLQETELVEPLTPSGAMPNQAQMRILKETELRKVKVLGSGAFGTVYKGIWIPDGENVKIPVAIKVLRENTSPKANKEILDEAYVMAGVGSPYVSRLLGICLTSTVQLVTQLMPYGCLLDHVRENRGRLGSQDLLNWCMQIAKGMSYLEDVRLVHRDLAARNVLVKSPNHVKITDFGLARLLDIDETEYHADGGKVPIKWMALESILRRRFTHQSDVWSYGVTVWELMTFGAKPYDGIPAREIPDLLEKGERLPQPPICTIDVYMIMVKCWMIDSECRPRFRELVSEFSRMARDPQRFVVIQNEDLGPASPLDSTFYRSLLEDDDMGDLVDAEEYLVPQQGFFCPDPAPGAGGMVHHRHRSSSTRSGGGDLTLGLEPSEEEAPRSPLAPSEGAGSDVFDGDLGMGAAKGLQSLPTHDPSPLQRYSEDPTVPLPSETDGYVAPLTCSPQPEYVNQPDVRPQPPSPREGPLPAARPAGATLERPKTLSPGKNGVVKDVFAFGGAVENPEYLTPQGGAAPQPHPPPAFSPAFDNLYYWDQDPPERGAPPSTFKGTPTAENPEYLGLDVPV

CC1=C(C#N)C(c2ccc3c(c2)c(NC(=O)c2ccccc2C)nn3C)C(C#N)=C(C)N1 [BAY-974]
inactive: [1] 90% | [2] 97% | [3] 58% | [4] 72% | [5] 100% | [6] 100% | [7] 77% | [8] 86% | [9] 70% | [10] 99% | [11] 84% | [12] 91% | [13] 100% | [14] 72% | [15] 100% | [16] 88%

CCc1ccccc1C(=O)Nc1n[nH]c2c(C)c(F)c(C3C(C#N)=C(C)N(C)C(C)=C3C#N)cc12 [BAY-3827]
inactive: [1] 81% | [2] 72% | [3] 90% | [4] 87% | [5] 100% | [6] 64% | [7] 87% | [8] 71% | [9] 54% | [10] 100% | [11] 100% | [12] 100% | [13] 95% | [14] 100% | [15] 98% | [16] 86%

Reference: ChEMBL document CHEMBL4507319 (2021)
